According to article PMC7827085 (Pharmaceutics, 2021):
Where two headings read alike, the source gives them in different places.

Columns and labels:
[1] = biological target: T1, ABCB1/MDR1/Pgp (Homo sapiens, UniProt P08183); test: in vitro; conditions: read-out: Estimated Transporter Inhibition IC50, ABCB1 cellular assay; Calcein-AM extrusion, PLB-985/ABCB1 cells; relative to full inhibition by 0.25 µM tariquidar; '-' = no significant inhibition
Method: (§1) For the ABC transporter assays, we used both cell-based and membrane-based functional assays. […] The respective transport activities were assayed by measuring the cellular fluorescence of the respective transported substrates Phengreen (ABCG2) and Calcein (ABCB1 and ABCC1).
The cells were kept on ice until the flow cytometry measurements. All experiments were performed in triplicate and in at least three biological parallels.
(§2) The cells were kept on ice until the flow cytometry measurements. All experiments were performed in triplicate and in at least three biological parallels. […] The PhenGreen (PG) or Calcein signal was detected in the BL1 channel (emission filter: 530/30 nm). Analysis of the data was carried out by the Attune Nxt Cytometer Software v3.1.2 (Thermo Fischer Scientific, Waltham, MA, USA). The inhibition of transporter activity was calculated by comparing the fluorescence in the presence of the test compound to that in the presence of a specific inhibitor providing maximum inhibition. […] Half-maximum inhibition (IC50) values were calculated by using the Origin2019 software (9.6.5.169, OriginLab Corporation, Northampton, MA, USA). […] In these experiments, we measured Hoechst dye extrusion in HeLa cells stably expressing eGFP and the ABCG2 variants driven by the same promoter—the transgenic cells generated by the Sleeping Beauty transposon system. […] For details, see Zámbó et al.). […] The maximum inhibition was defined for each variant as the fluorescence difference of the samples incubated with and without Ko143, respectively. […] Data analysis was performed using the Attune Nxt Cytometer Software v3.1.2. Two samples per condition and three biological replicates were examined in each experiment.
ABCB1 is a high-affinity active efflux transporter of the viability dye Calcein-AM (CaAM). […] Here, we applied this widely used cellular assay (see https://www.solvobiotech.com/services/categories/dye-efflux-assays) to characterize drug interactions of the applied compounds in intact PLB-985 cells, expressing high levels of the ABCB1 protein.

[2] = biological target: T2, ABCG2/BCRP (Homo sapiens, UniProt Q9UNQ0); test: in vitro; conditions: read-out: Estimated Transporter Inhibition IC50, ABCG2 cellular assay; PhenGreen-DA extrusion, PLB-985/ABCG2 cells; relative to 2.5 µM Ko143; '-' = no inhibition
T2 sequence (Q9UNQ0 1-655): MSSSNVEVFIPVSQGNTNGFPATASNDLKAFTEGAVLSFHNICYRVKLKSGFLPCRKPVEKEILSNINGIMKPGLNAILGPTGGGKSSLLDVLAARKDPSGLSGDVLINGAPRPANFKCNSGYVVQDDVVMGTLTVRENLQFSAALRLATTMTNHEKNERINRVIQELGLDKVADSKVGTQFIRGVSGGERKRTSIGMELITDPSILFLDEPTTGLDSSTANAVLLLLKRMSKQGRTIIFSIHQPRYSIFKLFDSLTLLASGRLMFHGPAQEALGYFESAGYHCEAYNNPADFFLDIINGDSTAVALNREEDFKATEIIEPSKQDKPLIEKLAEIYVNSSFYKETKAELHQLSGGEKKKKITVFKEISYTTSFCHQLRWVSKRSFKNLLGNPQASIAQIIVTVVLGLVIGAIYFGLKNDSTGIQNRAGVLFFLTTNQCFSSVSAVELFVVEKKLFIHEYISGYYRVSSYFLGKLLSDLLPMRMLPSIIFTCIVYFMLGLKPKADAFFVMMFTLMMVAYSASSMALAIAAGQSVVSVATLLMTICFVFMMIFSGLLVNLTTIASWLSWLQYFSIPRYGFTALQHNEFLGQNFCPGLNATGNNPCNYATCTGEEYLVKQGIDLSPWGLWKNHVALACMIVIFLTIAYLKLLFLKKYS
Method: as §1, §2
Here, we used both PhenGreen-SK diacetate and Hst dye for these measurements. The PhenGreen (PG) assay is a recently patented method applied for ensuring an efficient ABCG2 transport measurement, as the non-fluorescent PhenGreen diacetate (PG-DA) is actively extruded by ABCG2 and the cellular fluorescence is correlated with ABCG2 transport activity. Therefore, we applied this assay to characterize the test drug interactions in intact PLB-985 cells expressing high levels of the ABCG2 protein. […] ABCG2 inhibition by the test compounds was estimated by their relative (%) inhibition compared to full inhibition by Ko143.

[3] = biological target: T2, ABCG2/BCRP; test: in vitro; conditions: read-out: Estimated Transporter Inhibition IC50, ABCG2 vesicular assay; ATP-dependent lucifer yellow uptake, HEK-293/ABCG2 vesicles; relative to 1 µM Ko143; '-' = no inhibition
Method: These were employed at 37 °C for 10 min (ABCG2), 1 min (ABCB1), or 3 min (ABCC1), with or without 4 mM Mg-ATP, in a 50 μL final volume. The known reference inhibitors of the transporters (1 µM Ko143 for ABCG2, 1 µM Valspodar for ABCB1, and 200 µM Benzbromarone for ABCC1) served as controls. Each test compound was dissolved in DMSO and a 1 µL volume was added to the samples. After incubation, the samples were filtered and washed, and the substrates in the vesicles were dissolved in 10% SDS and transferred onto another plate. After the addition of a stabilizer, the fluorescence was measured in plate readers (Victor X3 and Enspire Perkin-Elmer, Waltham, MA, USA), while the activity of the radiolabeled substrate was measured by liquid scintillation counting (Perkin Elmer MicroBeta2 liquid scintillation counter, Perkin Elmer, Waltham, MA, USA). ABC transporter-related vesicular transport was calculated by subtracting uptake measured in the presence of Mg-AMP from the values measured in the presence of Mg-ATP.
The effects of the test compounds on ABCG2 activity were also measured in a vesicular transport assay by using inverted membrane vesicles prepared from HEK-293 cells expressing high levels of the ABCG2 transporter.

[4] = biological target: T1, ABCB1/MDR1/Pgp; conditions: read-out: Estimated Transporter Inhibition IC50, ABCB1 vesicular assay; ATP-dependent NMQ uptake, HEK-293/ABCB1 inverted membrane vesicles; '-' = no inhibition
[5] = biological target: T3, OATP2B1 (Homo sapiens, UniProt O94956); conditions: read-out: Estimated Transporter Inhibition IC50, OATP2B1 cellular assay; 20 µM pyranine uptake, 15 min, pH 5.5, A431-OATP2B1 cells; '-' = no interaction
T3 sequence (O94956 1-709): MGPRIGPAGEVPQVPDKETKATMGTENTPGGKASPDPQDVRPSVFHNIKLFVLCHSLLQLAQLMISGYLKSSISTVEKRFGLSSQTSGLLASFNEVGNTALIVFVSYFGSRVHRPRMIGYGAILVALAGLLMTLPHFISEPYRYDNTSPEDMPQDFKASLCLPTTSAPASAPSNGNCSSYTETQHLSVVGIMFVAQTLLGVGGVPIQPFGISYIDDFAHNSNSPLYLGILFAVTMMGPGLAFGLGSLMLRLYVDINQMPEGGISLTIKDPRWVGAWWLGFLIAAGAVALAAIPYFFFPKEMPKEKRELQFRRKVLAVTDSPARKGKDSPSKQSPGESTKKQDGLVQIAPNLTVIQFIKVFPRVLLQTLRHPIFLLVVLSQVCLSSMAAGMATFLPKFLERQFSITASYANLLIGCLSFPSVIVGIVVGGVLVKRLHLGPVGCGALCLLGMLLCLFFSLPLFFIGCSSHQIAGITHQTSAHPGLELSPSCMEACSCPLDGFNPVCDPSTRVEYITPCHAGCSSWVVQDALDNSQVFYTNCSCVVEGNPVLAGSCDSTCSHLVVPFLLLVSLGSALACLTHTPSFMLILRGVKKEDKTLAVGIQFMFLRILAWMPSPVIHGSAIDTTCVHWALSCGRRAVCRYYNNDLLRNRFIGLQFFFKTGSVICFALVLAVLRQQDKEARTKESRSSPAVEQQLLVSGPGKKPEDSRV

[6] = test system: OATP2B1; set-up: method as in PMID 22541068; conditions: 20 µM ivermectin, different test substrate; cited from earlier work
[7] = test system: SARS-CoV-2; conditions: cited from earlier work

T1 sequence (P08183 whole entry): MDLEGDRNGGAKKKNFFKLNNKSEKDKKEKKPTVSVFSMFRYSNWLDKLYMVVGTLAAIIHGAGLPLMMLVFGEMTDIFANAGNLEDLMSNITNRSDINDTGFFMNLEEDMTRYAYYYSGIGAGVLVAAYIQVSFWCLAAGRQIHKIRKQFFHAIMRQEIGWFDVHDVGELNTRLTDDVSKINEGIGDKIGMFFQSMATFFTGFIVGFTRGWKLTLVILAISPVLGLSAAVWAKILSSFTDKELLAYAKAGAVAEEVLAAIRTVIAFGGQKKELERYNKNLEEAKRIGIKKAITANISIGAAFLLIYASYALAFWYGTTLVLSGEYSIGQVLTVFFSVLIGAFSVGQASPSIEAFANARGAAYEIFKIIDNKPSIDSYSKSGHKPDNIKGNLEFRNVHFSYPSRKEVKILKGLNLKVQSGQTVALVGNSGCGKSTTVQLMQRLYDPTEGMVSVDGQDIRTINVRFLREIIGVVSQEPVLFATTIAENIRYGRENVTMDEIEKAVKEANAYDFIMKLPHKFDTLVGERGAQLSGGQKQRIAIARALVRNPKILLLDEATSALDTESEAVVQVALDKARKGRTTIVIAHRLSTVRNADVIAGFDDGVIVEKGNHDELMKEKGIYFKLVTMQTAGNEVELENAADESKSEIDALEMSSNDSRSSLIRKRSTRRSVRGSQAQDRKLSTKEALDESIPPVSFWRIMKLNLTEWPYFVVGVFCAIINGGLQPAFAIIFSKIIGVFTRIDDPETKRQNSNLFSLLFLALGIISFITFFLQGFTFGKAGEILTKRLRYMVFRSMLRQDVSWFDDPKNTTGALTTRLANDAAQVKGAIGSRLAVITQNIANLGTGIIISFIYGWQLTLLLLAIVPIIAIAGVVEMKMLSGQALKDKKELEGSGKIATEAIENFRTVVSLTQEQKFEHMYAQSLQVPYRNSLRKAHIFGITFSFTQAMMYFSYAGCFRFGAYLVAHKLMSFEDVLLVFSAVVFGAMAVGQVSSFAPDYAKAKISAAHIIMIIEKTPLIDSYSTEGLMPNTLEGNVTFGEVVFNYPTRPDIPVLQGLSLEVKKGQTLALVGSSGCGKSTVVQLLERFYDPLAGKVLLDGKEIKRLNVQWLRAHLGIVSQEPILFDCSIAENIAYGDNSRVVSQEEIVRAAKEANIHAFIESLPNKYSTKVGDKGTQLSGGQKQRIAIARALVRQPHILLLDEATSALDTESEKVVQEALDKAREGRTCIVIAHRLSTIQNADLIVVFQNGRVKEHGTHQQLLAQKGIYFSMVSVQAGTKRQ

ivermectin
IC50 [1]: 600 nM | IC50 [2]: 3.1 µM | IC50 [3]: 1100 nM | IC50 [4]: 300 nM | IC50 [5]: 8.6 µM | OATP2B1 inhibition found by Karlgren et al. [6]: 39% | Plasma concentrations required to reach an in vitro antiviral efficacy [7]: 2 to 10 µM
